According to patent publication US7973219B2, “Method for producing transgenic plants resistant to weed control compounds which disrupt the porphyrin pathways of plants” (Sumitomo Chemical Company, Limited, priority 1998, dated 2011):
Where two headings read alike, the source gives them in different places.

Tests used:
[1] = tested on: E. coli BT3/pACYCSP+pYAGF strain; experiment: Growth of E. coli BT3/pACYCSP+pYAGF with herbicidal compound; assay type: cell-based, Escherichia coli; conditions: 1 ppm, 18 hours culture, Table 15
Excerpt: According to the description of Gibson, L. C. D. et al., Proc. Natl. Acad. Sci. USA, 92; p 1941 (1995), the DNA fragment containing bchH gene prepared in Example 1 was digested with the restriction enzymes NdeI and BglII. The resultant DNA fragment was inserted between NdeI restriction site and BamHI restriction site of expression vector pET11a (manufactured by Stratagene) to obtain plasmid pETBCH (FIG. 1). This plasmid pETBCH was introduced into E. coli BL21(DE3) strain competent cells (manufactured by Stratagene) according to the manual attached to the competent cells to obtain E. coli BL21(DE3)/pETBCH strain. The strain was inoculated into 1.5 ml LB liquid culture medium (1% tryptone, 0.5% yeast extract, 0.5% NaCl) containing 100 μg/ml ampicillin in a tube (14×10 mm), and the tube was covered with aluminum foil (hereinafter referred to as dark conditions), cultured with shaking at 37° C. under light of fluorescent lamp (about 8000 lux). When the absorbance at 600 nm of the liquid culture medium became about 0.6, isopropyl β-D-thiogalactopyranoside (IPTG) was added to the liquid culture medium so that the final concentration was 0.4 mM, and the culture was continued for about additional 20 hours. […]

[2] = tested on: E. coli BT3/pACYCSP+pTVBCH strain; experiment: Growth of E. coli BT3/pACYCSP+pTVBCH (bchH) with herbicidal compound; assay type: cell-based; conditions: Escherichia coli, 18 h, 18 hours culture, Table 2
Excerpt: According to the description of Gibson, L. C. D. et al., Proc. Natl. Acad. Sci. USA, 92; p 1941 (1995), the DNA fragment containing bchH gene prepared in Example 1 was digested with the restriction enzymes NdeI and BglII. The resultant DNA fragment was inserted between NdeI restriction site and BamHI restriction site of expression vector pET11a (manufactured by Stratagene) to obtain plasmid pETBCH (FIG. 1). This plasmid pETBCH was introduced into E. coli BL21(DE3) strain competent cells (manufactured by Stratagene) according to the manual attached to the competent cells to obtain E. coli BL21(DE3)/pETBCH strain. The strain was inoculated into 1.5 ml LB liquid culture medium (1% tryptone, 0.5% yeast extract, 0.5% NaCl) containing 100 μg/ml ampicillin in a tube (14×10 mm), and the tube was covered with aluminum foil (hereinafter referred to as dark conditions), cultured with shaking at 37° C. under light of fluorescent lamp (about 8000 lux). When the absorbance at 600 nm of the liquid culture medium became about 0.6, isopropyl β-D-thiogalactopyranoside (IPTG) was added to the liquid culture medium so that the final concentration was 0.4 mM, and the culture was continued for about additional 20 hours. […] In contrast to this, when E. coli BL21(DE3)/pETBCH strain was cultured according to the same manner (with IPTG) except that the tube was not covered with aluminum foil (hereinafter referred to as light conditions), E. coli grew and turned red as above. […]
These strains were inoculated into YPT medium containing 10 or 1 ppm of the PPO inhibitory-type herbicidal compound represented by the above Structure 8, 100 μg/ml ampicillin, 15 μg/ml chloramphenicol, 10 μg/ml kanamycin, 10 μg/ml hemin and 50 μg/ml aminolevulinic acid, cultured under dark conditions or light conditions according to the same manner as in Example 2. Then, 18 hours after initiation of culture, the absorbance of the liquid culture medium was measured at 600 nm. By taking the absorbance of the medium without the herbicidal compound as 1, the relative value of the absorbance of the medium containing the herbicidal compound was calculated.
Further, these strains were inoculated into YPT medium containing PPO inhibitory-type herbicidal compounds represented by the above Structures 1, 14, 15, 18-22, 29, 32, 33, 34 and 36, respectively, 100 μg/ml ampicillin, 15 μg/ml chloramphenicol, 10 μg/ml kanamycin, 10 μg/ml hemin and 50 μg/ml aminolevulinic acid, cultured under dark conditions or light conditions similar to the Example 2. Then, 18 hours after initiation of culture, the absorbance of liquid culture medium was measured at 600 nm. By taking the absorbance of the medium without the herbicidal compound as 1, the relative value of the absorbance of the medium containing the herbicidal compound was calculated.

[3] = read-out: Relative absorbance, in the dark
[4] = read-out: Relative absorbance, in the light

## C#CCOc1cc(N2C(=O)C3=C(CCCC3)C2=O)c(F)cc1Cl [Structure 8]
[1]; in the dark
  Relative absorbance: 0.96
[1]; in the light
  Relative absorbance: 0.62
[2]; [3]
  activity at 1 ppm: 106%
  activity at 10 ppm: 90%
[2]; [4]
  activity at 1 ppm: 77%
  activity at 10 ppm: 80%
